Source: patent publication US20140315876A1, “BETA-LACTAMASE INHIBITORS” (priority 2013, published 2014)
Counter-ions that a name gives are not always drawn.

System: bacterial strains that express the class D cephalosporinase OXA-15
Experiment: Synergy MIC / standard BLI potentiation MIC assay, strains expressing OXA-15
Assay type: cell-based, E. coli
Settings: in the presence of a β-lactam; comparator Avibactam (comparator compound CCC)
Protocol: The experimental protocol was performed according to Clinical and Laboratory Standards Institute (CLSI) guidelines with modifications as described below (CLSI guidelines can be derived from the CLSI document M07-A9 published in January 2012: “Methods for Dilution Antimicrobial Susceptibility Tests for Bacteria That Grow Aerobically; Approved Standard-Ninth Edition”).
To prepare for MIC testing, frozen glycerol stocks of clinical isolates (Klebsiella pneumoniae, Eschericia coli, Enterobacter spp, Citrobacter spp, or Pseudomonas aeruginosa) were used to streak for isolated colonies on rich, non-selective, tryptic soy agar containing 5% sheep's blood (TSAB). Frozen glycerol stocks of laboratory engineered, isogenic E. coli strains, which contain cloned β-lactamase expressing plasmids were used to streak for isolated colonies on rich, selective LB agar supplemented with 25 μg/mL tetracycline to maintain the plasmid. All strains were incubated at 37° C. for 18-24 hrs.
On the day of testing, primary cultures were started by scraping off 5-10 colonies from the TSAB plates containing clinical strains or the tetracycline supplemented LB plates containing engineered strains. The clinical strain material was suspended in ˜5 mL of cation adjusted Mueller Hinton Broth (CAMHB) in 14 mL culture tubes. The engineered strain material was suspended in CAMHB (supplemented with 25 μg/mL tetracycline) in 14 mL culture tubes. All strains were incubated at 37° C. with aeration (200 rpm) for ˜2 hrs until the optical density at 600 nm (OD600) was ≧0.1.
The two compound components of the assay were each diluted in CAMHB and added to the 96-well broth microdilution assay plates. 50 μL of the β-lactam was added to each well of the assay plate in 2-fold dilutions with final concentrations ranging from 128 to 0.13 μg/mL. 25 μL of the BLI compound was added to all wells in the broth microdilution plates at a final concentration of 4 μg/mL. Inoculum cultures were prepared by standardizing the primary cultures to OD600=0.1 and then adding 20 μL of the adjusted primary culture per 1 mL CAMHB for clinical strains or CAMHB (supplemented with tetracycline at 100 μg/mL) for engineered strains, so that the final inoculum density was ˜10^5 colony forming units per milliliter. Diluted inoculum cultures were used to inoculate 25 μL per well in 96-well broth microdilution assay plates. The final volume of each well was 100 μL and contained a β-lactam at different concentrations, a BLI compound at 4 μg/mL concentration, the bacterial culture at an OD600 of approximately 0.001 and when necessary tetracycline at 25 μg/mL.
Plates were incubated for 18-20 hours at 37° C. with aeration (200 rpm). Following incubation, growth was confirmed visually placing plates over a viewing apparatus (stand with a mirror underneath) and then OD600 was measured using a SpectraMax 340PC384 plate reader (Molecular Devices, Sunnyvale, Calif.). Growth was defined as turbidity that could be detected with the naked eye or achieving minimum OD600 of 0.1. MIC values were defined as the lowest concentration producing no visible turbidity.
The synergy MIC (sMIC) assay determines the concentration of the BLI required to potentiate the activity of a fixed concentration of a β-lactam antibiotic against β-lactamase producing bacterial strains. The experimental protocol was performed according to Clinical and Laboratory Standards Institute (CLSI) guidelines with modifications as described below (CLSI guidelines can be derived from the CLSI document M07-A9 published in January 2012: “Methods for Dilution Antimicrobial Susceptibility Tests for Bacteria That Grow Aerobically; Approved Standard-Ninth Edition”). […]

SMILES	activity against bacterial strains that express the class D cephalosporinase OXA-15, compared with Avibactam
Nc1nnc([C@@H]2CC[C@@H]3CN2C(=O)N3OS(=O)(=O)O)o1 [Compound 707, (2S,5R)-2-(5-amino-1,3,4-oxadiazol-2-yl)-7-oxo-1,6-diazabicyclo[3.2.1]octan-6-yl hydrogen sulfate]	more active than Avibactam
N=C(N)NCc1nnc([C@@H]2CC[C@@H]3CN2C(=O)N3OS(=O)(=O)O)o1 [Compound 704, (2S,5R)-2-(5-(guanidinomethyl)-1,3,4-oxadiazol-2-yl)-7-oxo-1,6-diazabicyclo[3.2.1]octan-6-yl hydrogen sulfate]	more active than Avibactam
NCCNCCc1nnc([C@@H]2CC[C@@H]3CN2C(=O)N3OS(=O)(=O)O)o1 [Compound 716, (2S,5R)-2-(5-(2-((2-aminoethyl)amino)ethyl)-1,3,4-oxadiazol-2-yl)-7-oxo-1,6-diazabicyclo[3.2.1]octan-6-yl hydrogen sulfate]	more active than Avibactam
NCC(O)c1nnc([C@@H]2CC[C@@H]3CN2C(=O)N3OS(=O)(=O)O)o1 (stereo partly drawn) [Compound 715, (2S,5R)-2-(5-(2-amino-1-hydroxyethyl)-1,3,4-oxadiazol-2-yl)-7-oxo-1,6-diazabicyclo[3.2.1]octan-6-yl hydrogen sulfate]	more active than Avibactam
NC1CCN(c2nnc([C@@H]3CC[C@@H]4CN3C(=O)N4OS(=O)(=O)O)o2)CC1 [Compound 773, (2S,5R)-2-(5-(4-aminopiperidin-1-yl)-1,3,4-oxadiazol-2-yl)-7-oxo-1,6-diazabicyclo[3.2.1]octan-6-yl hydrogen sulfate]	more active than Avibactam
N=C(N)N1CCC(c2nnc([C@@H]3CC[C@@H]4CN3C(=O)N4OS(=O)(=O)O)o2)CC1 [Compound 712, (2S,5R)-2-(5-(1-carbamimidoylpiperidin-4-yl)-1,3,4-oxadiazol-2-yl)-7-oxo-1,6-diazabicyclo[3.2.1]octan-6-yl hydrogen sulfate]	more active than Avibactam
O=C1N2C[C@@H](CC[C@H]2c2nnc(CCCN3CCNCC3)o2)N1OS(=O)(=O)O [Compound 792, (2S,5R)-7-oxo-2-(5-(3-(piperazin-1-yl)propyl)-1,3,4-oxadiazol-2-yl)-1,6-diazabicyclo[3.2.1]octan-6-yl hydrogen sulfate]	more active than Avibactam
O=C1N2C[C@@H](CC[C@H]2c2nnc(N3CCNCC3)o2)N1OS(=O)(=O)O [Compound 713, (2S,5R)-7-oxo-2-(5-(piperazin-1-yl)-1,3,4-oxadiazol-2-yl)-1,6-diazabicyclo[3.2.1]octan-6-yl hydrogen sulfate]	more active than Avibactam
NCC(N)c1nnc([C@@H]2CC[C@@H]3CN2C(=O)N3OS(=O)(=O)O)o1 (stereo partly drawn) [Compound 717, (2S,5R)-2-(5-(1,2-diaminoethyl)-1,3,4-oxadiazol-2-yl)-7-oxo-1,6-diazabicyclo[3.2.1]octan-6-yl hydrogen sulfate]	more active than Avibactam
N[C@H]1CC[C@@H](c2nnc([C@@H]3CC[C@@H]4CN3C(=O)N4OS(=O)(=O)O)o2)CC1 [Compound 780, (2S,5R)-2-(5-((1s,4R)-4-aminocyclohexyl)-1,3,4-oxadiazol-2-yl)-7-oxo-1,6-diazabicyclo[3.2.1]octan-6-yl hydrogen sulfate]	more active than Avibactam
N=C(N)N[C@H]1C[C@H](c2nnc([C@@H]3CC[C@@H]4CN3C(=O)N4OS(=O)(=O)O)o2)C1 [Compound 748, (2S,5R)-2-(5-((1r,3S)-3-guanidinocyclobutyl)-1,3,4-oxadiazol-2-yl)-7-oxo-1,6-diazabicyclo[3.2.1]octan-6-yl hydrogen sulfate]	more active than Avibactam
O=C1N2C[C@@H](CC[C@H]2c2nnc([C@@H]3CNCCN3)o2)N1OS(=O)(=O)O [Compound 778, (2S,5R)-7-oxo-2-(5-((S)-piperazin-2-yl)-1,3,4-oxadiazol-2-yl)-1,6-diazabicyclo[3.2.1]octan-6-yl hydrogen sulfate]	more active than Avibactam
N=C(N)NCCCc1nnc([C@@H]2CC[C@@H]3CN2C(=O)N3OS(=O)(=O)O)o1 [Compound 714, (2S,5R)-2-(5-(3-guanidinopropyl)-1,3,4-oxadiazol-2-yl)-7-oxo-1,6-diazabicyclo[3.2.1]octan-6-yl hydrogen sulfate]	more active than Avibactam
O=C1N2C[C@@H](CC[C@H]2c2nnc(CNC3CCNCC3)o2)N1OS(=O)(=O)O [Compound 769, (2S,5R)-7-oxo-2-(5-((piperidin-4-ylamino)methyl)-1,3,4-oxadiazol-2-yl)-1,6-diazabicyclo[3.2.1]octan-6-yl hydrogen sulfate]	more active than Avibactam
N[C@H]1C[C@H](NCc2nnc([C@@H]3CC[C@@H]4CN3C(=O)N4OS(=O)(=O)O)o2)C1 [Compound 757, (2S,5R)-2-(5-((((1r,3S)-3-aminocyclobutyl)amino)methyl)-1,3,4-oxadiazol-2-yl)-7-oxo-1,6-diazabicyclo[3.2.1]octan-6-yl hydrogen sulfate]	more active than Avibactam
N[C@H]1CC[C@H](c2nnc([C@@H]3CC[C@@H]4CN3C(=O)N4OS(=O)(=O)O)o2)CC1 [Compound 781, (2S,5R)-2-(5-((1r,4S)-4-aminocyclohexyl)-1,3,4-oxadiazol-2-yl)-7-oxo-1,6-diazabicyclo[3.2.1]octan-6-yl hydrogen sulfate]	more active than Avibactam
O=C1N2C[C@@H](CC[C@H]2c2nnc(N3CCNCC3)s2)N1OS(=O)(=O)O [Compound 797, (2S,5R)-7-oxo-2-(5-(piperazin-1-yl)-1,3,4-thiadiazol-2-yl)-1,6-diazabicyclo[3.2.1]octan-6-yl hydrogen sulfate]	more active than Avibactam
NCC(O)Cc1nnc([C@@H]2CC[C@@H]3CN2C(=O)N3OS(=O)(=O)O)o1 (stereo partly drawn) [Compound 733, (2S,5R)-2-(5-(3-amino-2-hydroxypropyl)-1,3,4-oxadiazol-2-yl)-7-oxo-1,6-diazabicyclo[3.2.1]octan-6-yl hydrogen sulfate]	more active than Avibactam
O=C1N2C[C@@H](CC[C@H]2c2nnc(CC3CNC3)o2)N1OS(=O)(=O)O [Compound 725, (2S,5R)-2-(5-(azetidin-3-ylmethyl)-1,3,4-oxadiazol-2-yl)-7-oxo-1,6-diazabicyclo[3.2.1]octan-6-yl hydrogen sulfate]	more active than Avibactam
O=C1N2C[C@@H](CC[C@H]2c2nnc(C3CCNCC3)s2)N1OS(=O)(=O)O [Compound 719, (2S,5R)-7-oxo-2-(5-(piperidin-4-yl)-1,3,4-thiadiazol-2-yl)-1,6-diazabicyclo[3.2.1]octan-6-yl hydrogen sulfate]	more active than Avibactam
